From article PMC11091976, “Shorter Peptide Nucleic Acid Probes Improve Affibody-Mediated Peptide Nucleic Acid-Based Pretargeting” (ACS Pharmacology & Translational Science, 2024)

How the values were obtained:
[1] = test system: HER2 xenograft mouse model; conditions: in vivo; cited from earlier work
Procedure: In our recent study,[29] we introduced a second-generation of pretargeting probes featuring a common 15-mer affibody-PNA conjugate, ZHER2:343-HP15, and three complementary secondary probes of varying lengths: a 9-mer (HP16), a 12-mer (HP17), and a 15-mer (HP18). […] At 4 h postinjection, there were no significant differences in the tumor-to-kidney ratios among the three different pretargeting groups.

[2] = assay type: physicochemical
Procedure: Table 4 summarizes the radiochemical yield (RCY), purity, and stability test results for all ^177Lu-labeled probes in this study. […] Such radiolabeling yield necessitated purification to achieve the requisite radiochemical purity of over 95%. Purification was conducted using a NAP-5 column, eluted with 1% BSA in PBS, resulting in radiochemical purities of 99 ± 1.7% for [^177Lu]Lu-Z-HP9 and 98.5 ± 2.2% for [^177Lu]Lu-Z-HP12, respectively. […] Thus, it was essential that the label was stable, and the compound was pure. […] The RCY for the secondary probes exceeded 97%, and consequently, further purification was deemed unnecessary for in vitro and in vivo studies. Importantly, all probes labeled with ^177Lu remained stable in the presence of an excess amount of EDTA and in PBS as control after incubation at 37 °C for 1 h.
Radiolabeling of primary and secondary probes with ^177Lu was performed using a previously described method.[29] Briefly, 100 μL of 0.2 M of NH4Ac, pH 5.5 was added to 30 μg of the probe (100 μL of 0.3 mg/mL stock in NH4Ac) to provide right pH for the labeling. The mixture was heated at 95 °C for 10 min, followed by sonication for 5 min, and reheating at 95 °C for 10 min to ensure complete dissolving. […] RCY was then analyzed using iTLC developed with 0.2 M citric acid, pH 2.0. […] Samples were run in triplicates and analyzed by radio-iTLC.

ZHER2-HP15 = conditions: SPR; cited from earlier work
Procedure: Our previously published preclinical therapy studies are based on PNA probes having 15 complementary nucleobases.[26],[27] Upon hybridization, these probes form an exceptionally stable duplex with a melting temperature (Tm) in solution of 86–88 °C. In a Biacore experiment, less than 5% of the hybridized secondary PNA detached during a 17 h long dissociation phase.[20] It is likely that shorter probe pairs than the original 15-mers provide enough binding affinity and specificity to achieve an efficient pretargeted radionuclide therapy in vivo.

Z-HP15 = assay: Multicycle kinetic SPR, immobilized Z-HP15; assay type: binding; conditions: MCK SPR
Procedure: M^–1 s^–1, as well as the slowest dissociation rate constant (kd) at 3.4 × 10^–5 s^–1.
(§1) We utilized SPR on a Biacore T200 instrument (Cytiva) to examine how secondary PNA probes (6-mer HP19, 7-mer HP21, 8-mer HP20, and 9-mer HP16) bind to primary agents. These experiments were conducted using dextran-coated CM5 sensor chips and PBS-T buffer at pH 7.4. The ligands were immobilized through a standard EDC/NHS coupling method, and the chip surface was sealed with ethanolamine. A reference surface with no primary agent was also included.
Association and dissociation times were set at 700 and 1800 s, respectively, with regeneration accomplished through a 30 s injection of 10 mM glycine-HCl, pH 1.5.
(§2) All SPR experiments were performed in duplicate, and data analysis was conducted using the Biacore T200 Evaluation software version 2.0 with a 1:1 binding model.

Z-HP12 = assay: SPR off-rate screening (single-cycle kinetics), immobilized Z-HP12; assay type: binding; conditions: primary probe HP12 (immobilized Z-HP12), 25 °C, PBS-T pH 7.4, 120 nM HP16/HP20 or 362 nM HP21/HP19, dissociation 150 min, 1:1 model, duplicates
Procedure: The stability of new pretargeting probe combinations was assessed using SPR, and duplex melting temperatures were measured with UV–vis spectroscopy. In SPR, a high concentration of the secondary probe was injected over immobilized primary agents, and the dissociation of the hybridized complexes was monitored over 150 min (see Figures 3A, S22, and Table 2).
as §1
For ranking the off-rate (kd) of the secondary probes, we employed single-cycle kinetics (SCK) at 25 °C with a flow rate of 50 μL/min. […] Secondary PNA probes were injected at various concentrations, and dissociation was monitored for 10,000 s. To regenerate the chip surface, we used two 30 s injections of 10 mM glycine-HCl, pH 1.5.
as §2
Figure S22: Representative SPR sensorgrams of the dissociation phase of HP16 (9-mer), HP20 (8-mer), HP21 (7-mer) and HP19 […]
After injection with the secondary probe
(120 nM of HP16 and HP20 or 362 nM of HP21 and HP19) the dissociation of the formed complex was followed for 150 minutes. All experiments were done in duplicates, and the data presented is double-referenced (reference channel and buffer injection are subtracted).
(1 picture or pasted object on this page, not shown here)

NC(=O)[C@H](Cc1ccc(O)cc1)NC(=O)[C@H](CCC(=O)O)NC(=O)[C@H](CCC(=O)O)NC(=O)CN(CCNC(=O)CN(CCNC(=O)CN(CCNC(=O)CN(CCNC(=O)CN(CCNC(=O)CN(CCNC(=O)CN(CCNC(=O)CN(CCNC(=O)CN(CCNC(=O)[C@H](CO)NC(=O)[C@H](CO)NC(=O)COCCOCCNC(=O)CN1CCN(CC(=O)O)CCN(CC(=O)O)CCN(CC(=O)O)CC1)C(=O)Cn1cnc2c(N)ncnc21)C(=O)Cn1cnc2c(N)ncnc21)C(=O)Cn1ccc(N)nc1=O)C(=O)Cn1cnc2c(N)ncnc21)C(=O)Cn1ccc(N)nc1=O)C(=O)Cn1ccc(N)nc1=O)C(=O)Cn1cnc2c(N)ncnc21)C(=O)Cn1cnc2c(=O)[nH]c(N)nc21)C(=O)Cn1cnc2c(=O)[nH]c(N)nc21 [[^177Lu]Lu-HP16, metal not drawn]
kidney uptake [1]: 6 ± 1 % ID/g

NC(=O)[C@H](Cc1ccc(O)cc1)NC(=O)[C@H](CCC(=O)O)NC(=O)[C@H](CCC(=O)O)NC(=O)CN(CCNC(=O)CN(CCNC(=O)CN(CCNC(=O)CN(CCNC(=O)CN(CCNC(=O)CN(CCNC(=O)CN(CCNC(=O)CN(CCNC(=O)[C@H](CO)NC(=O)[C@H](CO)NC(=O)COCCOCCNC(=O)CN1CCN(CC(=O)O)CCN(CC(=O)O)CCN(CC(=O)O)CC1)C(=O)Cn1cnc2c(N)ncnc21)C(=O)Cn1ccc(N)nc1=O)C(=O)Cn1cnc2c(N)ncnc21)C(=O)Cn1ccc(N)nc1=O)C(=O)Cn1ccc(N)nc1=O)C(=O)Cn1cnc2c(N)ncnc21)C(=O)Cn1cnc2c(=O)[nH]c(N)nc21)C(=O)Cn1cnc2c(=O)[nH]c(N)nc21 [[^177Lu]Lu-HP20, metal not drawn]
stability (×500 EDTA), 37 °C, 1 h [2]: 99.5 ± 0.7
stability in PBS, 37 °C, 1 h [2]: 100 ± 0

DOTA-AEEA-SS-aacaccagg-EEY-NH2 [HP16, 9-mer secondary PNA probe with DOTA]
Kd (ZHER2-HP15): 280 pM
kd (ZHER2-HP15): 1.2 × 10^–5 s^–1
ka (Z-HP15; primary probe HP15 (Z-HP15 immobilized), 25 °C, 1.4-70 nM, 1:1 model, duplicates): 1.0 × 10^5 M^–1 s^–1
Kd (Z-HP15; primary probe HP15, 25 °C): 320 pM
kd (Z-HP15; primary probe HP15, 25 °C): 3.4 × 10^–5 s^–1
Kd (Z-HP15; primary probe HP15, 37 °C): 440 pM
ka (Z-HP15; primary probe HP15, 37 °C): 1.8 × 10^5 M^–1 s^–1
kd (Z-HP15; primary probe HP15, 37 °C): 8.1 × 10^–5 s^–1
kd (Z-HP12): 1.3 × 10^–5 s^–1
